Measurements reported in paper PMC6155387, “Alkoxy and Enediyne Derivatives Containing 1,4-Benzoquinone Subunits—Synthesis and Antitumor Activity” (Molecules : A Journal of Synthetic Chemistry and Natural …, 2017).
Where two headings read alike, the source gives them in different places.

How the values were obtained:
[1] = test system: C-32; assay: antiproliferative activity (WST-1), melanoma C-32; format: cell-based, human; settings: for SI (IC50 HFF-1/IC50 cancer line) C-32: selectivity index, HFF-1 vs C-32
Description: (§1) Biological activity of the tested compounds was assessed in vitro using cultured cell lines: melanoma C-32 (ATCC, Rockville, MD, USA), glioblastoma SNB-19 (DSMZ, Braunschweig, Germany), breast cancer MDA-MB-231 (ATCC, Rockville, MD, USA), and normal human fibroblasts derived from foreskin HFF-1 (ATCC, Rockville, MD, USA). Cell cultures were maintained using DMEM (Lonza, Basel, Switzerland) supplemented with 10% fetal bovine serum (FBS) (Biological Industries Cromwell, CT, USA) and a mixture of penicillin (10,000 U/mL) and streptomycin (10 mg/mL) (Lonza, Basel, Switzerland).
(§2) Cells were cultured using 96-well plates (Nunc Thermo Fisher Scientific, Waltham, MA, USA). Cells were seeded (5 × 10^3 cells/well) and incubated for 24 h in a standard incubator (37 °C, 5% CO2, relative humidity 95%). Subsequently, the medium was replaced with a fresh aliquot containing an examined compound (0.01; 0.05; 0.1; 0.5; 1; 5; 10; 50; 100 µg/mL), and cells were further incubated for another 72 h. Upon the conclusion of incubation, a CVDE test (Aniara, West Chester, OH, USA) using crystal violet was performed to assess the relative number of cells in the culture. A WST-1 test (Roche) was performed to examine the metabolic activity of cells and test for the presence of LDH in the medium (Roche Diagnostics GmbH, Mannheim, Germany), allowing for the assessment of the relative number of dead cells (i.e., cytotoxicity of the examined compound). UVM340 microplate readers (BIOGENET, Józefów, Poland) were used to read absorbance values.
(§3) WST-1 colorimetric assay for cell proliferation (Roche Diagnostics GmbH, Mannheim, Germany, reagent kit cat. 11644807001) is based on the viable cells’ ability to cleave the bright red-colored stable tetrazolium salt WST-1 to dark red soluble formazan. This bioreduction occurs under the influence of mitochondrial dehydrogenases (depends mostly on production of NAD(P)H in viable cells). The amount of formazan dye formed correlates directly with the number of metabolically active cells in the culture and is measured by absorbance (λ = 450 nm) following 1 h incubation of cells with the reagent.

[2] = test system: SNB-19; assay: antiproliferative activity (WST-1), glioblastoma SNB-19; format: cell-based, human; settings: for SI (IC50 HFF-1/IC50 cancer line) SNB-19: selectivity index, HFF-1 vs SNB-19
Description: as §1, §2, §3

[3] = test system: MDA-MB-231; assay: antiproliferative activity (WST-1), breast cancer MDA-MB-231; format: cell-based, human; settings: for SI (IC50 HFF-1/IC50 cancer line) MDA-MB-231: selectivity index, HFF-1 vs MDA-MB-231
Description: as §1, §2, §3

[4] = test system: C-32; settings: melanoma C-32, read-out: IC50 ± SD C-32, cited from earlier work
[5] = test system: SNB-19; settings: glioblastoma SNB-19, read-out: IC50 ± SD SNB-19, cited from earlier work
[6] = test system: MDA-MB-231; settings: breast cancer MDA-MB-231, read-out: IC50 ± SD MDA-MB-231, cited from earlier work
[7] = test system: HFF-1; settings: normal fibroblasts HFF-1, cited from earlier work; for IC50: footnote b, read-out: IC50 ± SD HFF-1; for IC50 ± SD HFF-1: Neg: negative in the concentration used, footnote a
[8] = test system: HFF-1; assay: antiproliferative activity (WST-1), normal fibroblasts HFF-1; format: cell-based, human; settings: Homo sapiens, normal fibroblasts HFF-1, 72 h, Neg: negative in the concentration used, read-out: IC50 ± SD HFF-1
Description: as §1, §2, §3

IC50 ([1]; Homo sapiens, C32, melanoma C-32, 72 h, WST-1, Neg: negative in the concentration used, read-out: IC50 ± SD C-32) [µM] | IC50 ([2]; Homo sapiens, glioblastoma SNB-19, 72 h, WST-1, Neg: negative in the concentration used, read-out: IC50 ± SD SNB-19) [µM] | IC50 ([3]; Homo sapiens, breast cancer MDA-MB-231, 72 h, WST-1, Neg: negative in the concentration used, read-out: IC50 ± SD MDA-MB-231) [µM] | Structure (SMILES) | SI (IC50 HFF-1/IC50 cancer line) C-32 [1] | SI (IC50 HFF-1/IC50 cancer line) SNB-19 [2] | SI (IC50 HFF-1/IC50 cancer line) MDA-MB-231 [3] | IC50 ([4]; footnote b) [µM] | IC50 ([5]; footnote b) [µM] | IC50 ([6]; footnote b) [µM] | IC50 [7] [µM] | IC50 ([4]; footnote a) [µM] | IC50 ([5]; footnote a) [µM] | IC50 ([6]; footnote a) [µM] | IC50 ± SD HFF-1 [7] | IC50 [8] [µM]
– | – | – | C#CCOC1=C(OCC#C)C(=O)c2ncccc2C1=O [Compound 18] | 50.40 | 0.58 | 7.00 | 0.3 ± 0.1 | 21.7 ± 1.1 | 1.8 ± 0.1 | 12.6 ± 0.9 | – | – | – | – | –
– | – | – | CCCOC1=C(OCCC)C(=O)c2ncccc2C1=O [Compound 16] | – | – | – | – | – | – | – | 1.1 ± 0.1 | 0.7 ± 0.02 | 3 ± 0.3 | Neg | –
– | – | – | C=CCOC1=C(Cl)C(=O)c2cccnc2C1=O [Compound 8] | – | – | – | – | – | – | – | 0.28 ± 0.1 | 0.3 ± 0.1 | 17.2 ± 2.8 | Neg | –
– | – | – | C#CCOC1=C(Cl)C(=O)c2cccnc2C1=O [Compound 9] | 10.31 | 0.16 | 0.15 | 0.32 ± 0.1 | 20.4 ± 0.2 | 21.4 ± 3.4 | 3.3 ± 0.3 | – | – | – | – | –
– | – | – | C=CCOC1=C(OCC=C)C(=O)c2ncccc2C1=O [Compound 17] | – | – | – | – | – | – | – | 1.5 ± 0.1 | 0.2 ± 0.1 | 12.6 ± 2.7 | Neg | –
– | – | – | CCCOC1=C(Cl)C(=O)c2cccnc2C1=O [Compound 7] | – | – | – | – | – | – | – | 0.2 ± 0.1 | 0.4 ± 0.1 | 22.4 ± 2.7 | Neg | –
3.2 ± 0.6 | 8.4 ± 1.2 | 21 ± 1.5 | C#CCOC1=C(Cl)C(=O)c2ccccc2C1=O [Compound 6, 2-Chloro-3-(2-propynoxy)-1,4-naphthoquinon] | 1.22 | 0.46 | 0.19 | – | – | – | – | – | – | – | – | 3.9 ± 0.5
